Values of other authors in PubChem BioAssay AID1259409 (Chemical Carcinogenesis Research Information System (CCRIS), 2018).

Test system: rodent chemically induced tumor inhibition, incidence and multiplicity
Assay: CCRIS tumor inhibitor studies
Conditions: Carcinogen: DIETHYLNITROSAMINE, 55-18-5, 684-93-5, N-BUTYL-N-(4-HYDROXYBUTYL)NITROSAMINE, 3817-11-6, Carcinogen: DIETHYLNITROSAMINE, 55-18-5, 684-93-5, N-BUTYL-N-(4-HYDROXYBUTYL)NITROSAMINE, 3817-11-6, Dose [Inhibitor]: 0, Route [Inhibitor]: ORAL, Species: RAT

CCCCCCCCCCCCC(=O)COC1=C(O)C(=O)O[C@@H]1[C@@H](O)CO
tumour outcome (control, treated, inhibition, significance) (N-METHYL-N-NITROSOUREA, DIMETHY, N-METHYL-N-NITROSOUREA, DIMETHY, 1% IN THE DIET FOR 24 WK BEGINNING 1 DAY POST CARCINOGEN TREATMENT (STUDY DURATION: 28 WK), Strain/Sex: F344/MALE, Target Tissue: Type of Lesion: URINARY BLADDER: PAPILLOMA, Dose [Carcinogen]: 100 MG/KG BW DEN ONCE FOLLOWED BY 20 MG/KG BW MNU 4 TIMES AND 0.05% BBN IN DRINKING WATER DURING FIRST 2 WK THEN 40 MG/K, Promoter: NONE USED): 7%, 0%, 100%, not significant
tumour outcome (control, treated, inhibition, significance) (N-METHYL-N-NITROSOUREA, DIMETHY, N-METHYL-N-NITROSOUREA, DIMETHY, 1% IN THE DIET FOR 30 D BEGINNING 1 D PRIOR TO CARCINOGEN TREATMENT (STUDY DURATION: 28 WK), Strain/Sex: F344/MALE, Target Tissue: Type of Lesion: THYROID: CARCINOMA, Dose [Carcinogen]: 100 MG/KG BW DEN ONCE FOLLOWED BY 20 MG/KG BW MNU 4 TIMES AND 0.05% BBN IN DRINKING WATER DURING FIRST 2 WK THEN 40 MG/K, Promoter: NONE USED): 7%, 0%, 100%, not significant
tumour outcome (control, treated, inhibition, significance) (N-METHYL-N-NITROSOUREA, DIMETHY, N-METHYL-N-NITROSOUREA, DIMETHY, 1% IN THE DIET FOR 30 D BEGINNING 1 DAY PRIOR TO CARCINOGEN TREATMENT (STUDY DURATION: 28 WK), Strain/Sex: F344/ MALE, Target Tissue: Type of Lesion: URINARY BLADDER: PAPILLOMA, Dose [Carcinogen]: 100 MG/KG BW DEN ONCE FOLLOWED BY 20 MG/KG BW MNU 4 TIMES AND 0.05% BBN IN DRINKING WATER DURING FIRST 2 WK THEN 40 MG/K, Promoter: NONE USED): 7%, 0%, 100%, not significant
tumour outcome (control, treated, inhibition, significance) (N-METHYL-N-NITROSOUREA, DIMETHY, N-METHYL-N-NITROSOUREA, DIMETHY, 1% IN THE DIET FOR 30 D BEGINNING 1 DAY PRIOR TO CARCINOGEN TREATMENT (STUDY DURATION: 28 WK), Strain/Sex: F344/MALE, Target Tissue: Type of Lesion: LARGE INTESTINE: CARCINOMA, Dose [Carcinogen]: 100 MG/KG BW DEN ONCE FOLLOWED BY 20 MG/KG BW MNU 4 TIMES AND 0.05% BBN IN DRINKING WATER DURING FIRST 2 WK THEN 40 MG/K, Promoter: NONE USED): 7%, 7%, 0%, not significant
tumour outcome (control, treated, inhibition, significance) (N-METHYL-N-NITROSOUREA, DIMETHY, N-METHYL-N-NITROSOUREA, DIMETHY, 1% IN THE DIET FOR 30 D BEGINNING 1 DAY PRIOR TO CARCINOGEN TREATMENT (STUDY DURATION: 28 WK), Strain/Sex: F344/MALE, Target Tissue: Type of Lesion: SMALL INTESTINE: ADENOMA, Dose [Carcinogen]: 100 MG/KG BW DEN ONCE FOLLOWED BY 20 MG/KG BW MNU 4 TIMES AND 0.05% BBN IN DRINKING WATER DURING FIRST 2 WK THEN 40 MG/K, Promoter: NONE USED): 33%, 21%, 36%, not significant
tumour outcome (control, treated, inhibition, significance) (N-METHYL-N-NITROSOUREA, DIMETHY, N-METHYL-N-NITROSOUREA, DIMETHY, 1% IN THE DIET FOR 30 DAYS BEGINNING 1 D PRIOR TO CARCINOGEN TREATMENT (STUDY DURATION: 28 WK), Strain/Sex: F344/MALE, Target Tissue: Type of Lesion: SMALL INTESTINE: CARCINOMA, Dose [Carcinogen]: 100 MG/KG BW DEN ONCE FOLLOWED BY 20 MG/KG BW MNU 4 TIMES AND 0.05% BBN IN DRINKING WATER DURING FIRST 2 WK THEN 40 MG/K, Promoter: NONE USED): 7%, 14%, -100%, not significant
tumour outcome (control, treated, inhibition, significance) (N-METHYL-N-NITROSOUREA, DIMETHY, N-METHYL-N-NITROSOUREA, DIMETHY, 1% IN THE DIET FOR 30 DAYS BEGINNING 1 DAY PRIOR TO CARCINOGEN TREATMENT (STUDY DURATION: 28 WK), Strain/Sex: F344/MALE, Target Tissue: Type of Lesion: URINARY BLADDER: CARCINOMA): 7%, 0%, 100%, not significant
tumour outcome (control, treated, inhibition, significance) (N-METHYL-NITROSOUREA, DIMETHYLH, N-METHYL-NITROSOUREA, DIMETHYLH, 1% IN THE DIET FOR 30 DAYS BEGINNING 1 DAY PRIOR TO CARCINOGEN TREATMENT (STUDY DURATION: 28 WK), Strain/Sex: F344/MALE, Target Tissue: Type of Lesion: LARGE INTESTINE: ADENOMA, Dose [Carcinogen]: 100 MG/KG BW DEN ONCE FOLLOWED BY 20 MG/KG BW MNU 4 TIMES AND 0.05% BBN IN DRINKING WATER DURING FIRST 2 WK THEN 40 MG/K, Promoter: NONE USED): 27%, 29%, -7%, not significant
